These compounds were tested against SARS-CoV-2 3CL-protease (Severe acute respiratory syndrome coronavirus 2, UniProt P0DTD1) (assay: SARS-CoV-2 3C-Like (3CL) Protease Fluorescence Assay (FRET)). Settings: SARS-CoV-2 3CL-protease 10 nM, 30 min preincubation at RT, substrate 40 μM.
Assay type: biochemical

CN(C(=O)C1(c2ccncc2)CC1)[C@@H](CC(C)(C)F)C(=O)N1C[C@]2(C[C@H]1C#N)C(=O)Nc1ccc(Cl)cc12 [Example 473, N—((S)-1-((3R,5′S)-5-chloro-5′-cyano-2-oxospiro[indoline-3,3′-pyrrolidin]-1′-yl)-4-fluoro-4-methyl-1-oxopentan-2-yl)-N-methyl-1-(pyridin-4-yl)cyclopropane-1-carboxamide] and CN(C(=O)Cc1ccncc1)[C@@H](CC(C)(C)F)C(=O)N1C[C@]2(C[C@H]1C#N)C(=O)Nc1ccc(Cl)cc12 [Example 477] cannot be ordered by IC50: under 100 nM for the first, under 100 nM for the second.

Compared with CN(C(=O)C(F)(F)F)[C@@H](CC(C)(C)C)C(=O)N1C[C@]2(C[C@H]1C#N)C(=O)Nc1ccccc12 [Example 374], CNCCC(=O)N(C)[C@@H](CC(C)(C)F)C(=O)N1C[C@]2(C[C@H]1C#N)C(=O)Nc1ccccc12 [Example 543] is lower in IC50: 100 to 1000 nM for the first, under 100 nM for the second. The second is the more potent here.

CC(C)C[C@@H](C(=O)N1C[C@]2(C[C@H]1C#N)C(=O)Nc1ccccc12)N(C)C(=O)c1nnc(-c2ccc(F)cc2)o1 [Example 355] and CC(C)C[C@@H](C(=O)N1C[C@]2(C[C@H]1C#N)C(=O)Nc1ccccc12)N(C)C(=O)c1ccc(F)c2ccccc12 [Example 221] cannot be ordered by IC50: under 100 nM for the first, under 100 nM for the second.

First: CC(C)C[C@@H](C(=O)N1C[C@]2(C[C@H]1C(=O)C(=O)NC1CCCCC1)C(=O)Nc1ccccc12)N(C)C(=O)c1cc2c(F)cc(F)cc2[nH]1 [Example 155]
Second: CC[C@@H](C(=O)N1C[C@]2(C[C@H]1C#N)C(=O)Nc1ccccc12)N(C)C(=O)c1cc2c(F)cc(F)cc2[nH]1 [Example 385]
The IC50 of the first is higher: over 1000 nM for the first, 100 to 1000 nM for the second.

CC(C)C[C@@H](C(=O)N1C[C@]2(C[C@H]1C#N)C(=O)Nc1ccccc12)N(C)C(=O)c1cc2ccccn2n1 [Example 247] and CC(C)C[C@@H](C(=O)N1C[C@]2(C[C@H]1C#N)C(=O)Nc1ccccc12)N(C)C(=O)c1cc(F)ccn1 [Example 197] fall in the same range of IC50: 100 to 1000 nM for the first, 100 to 1000 nM for the second.

Cc1ccc2cc(C(=O)N(C)[C@@H](CC(C)(C)F)C(=O)N3C[C@]4(C[C@H]3C#N)C(=O)Nc3ccccc34)[nH]c2n1 [Example 467] and Cc1ccc2cc(C(=O)N(C)[C@@H](CC(C)C)C(=O)N3C[C@]4(C[C@H]3C#N)C(=O)Nc3ccccc34)[nH]c2n1 [Example 465] cannot be ordered by IC50: under 100 nM for the first, under 100 nM for the second.

CC(C)C[C@H](NC(=O)c1cc2c(F)cccc2[nH]1)C(=O)N1C[C@]2(C[C@H]1C#N)C(=O)Nc1c(Cl)cccc12 [Example 533] and CC(C)C[C@@H](C(=O)N1C[C@]2(C[C@H]1C#N)C(=O)Nc1ccccc12)N(C)C(=O)c1cc2c(Cl)c(Cl)ccc2[nH]1 [Example 328] cannot be ordered by IC50: under 100 nM for the first, under 100 nM for the second.

Cc1c(C(=O)N[C@@H](CC2CC2)C(=O)N2C[C@]3(C[C@H]2C#N)C(=O)Nc2ccc(F)cc23)sc2cccc(F)c12 [Example 521] and N#C[C@@H]1C[C@@]2(CN1C(=O)[C@H](CC1CC1)NC(=O)c1cccc(OC(F)(F)F)c1)C(=O)Nc1ccc(F)cc12 [Example 526] cannot be ordered by IC50: under 100 nM for the first, under 100 nM for the second.

C[C@@H]1CCC[C@H](C)N1CCC(=O)N(C)[C@@H](CC(C)(C)F)C(=O)N1C[C@]2(C[C@H]1C#N)C(=O)Nc1ccccc12 [Example 545] and CN(C(=O)c1cnn(C(C)(C)C)c1Cl)[C@@H](CC1CC1)C(=O)N1C[C@]2(C[C@H]1C#N)C(=O)Nc1ccccc12 [Example 409] cannot be ordered by IC50: under 100 nM for the first, under 100 nM for the second.

Cc1ccc2cc(C(=O)N(C)[C@@H](CC3CC3)C(=O)N3C[C@]4(C[C@H]3C#N)C(=O)Nc3ccc(Cl)cc34)[nH]c2n1 [Example 462] and CC(C)C[C@@H](C(=O)N1C[C@]2(C[C@H]1C#N)C(=O)Nc1ccccc12)N(C)C(=O)c1cc2ccc(Cl)c(Cl)c2[nH]1 [Example 334] cannot be ordered by IC50: under 100 nM for the first, under 100 nM for the second.

Compared with CC(C)C[C@@H](C(=O)N1C[C@]2(C[C@H]1C#N)C(=O)Nc1ccccc12)N(C)C(=O)N1CC[C@H](O)C1 [Example 335], CC(C)C[C@@H](C(=O)N1C[C@]2(C[C@H]1C#N)C(=O)Nc1ccccc12)N(C)C(=O)c1cn(C2CCC2)nn1 [Example 365] is lower in IC50: 100 to 1000 nM for the first, under 100 nM for the second.

CC(C)(C)C[C@H](NC(=O)c1cn(C2CC2)nn1)C(=O)N1C[C@]2(C[C@H]1C#N)C(=O)Nc1ccccc12 [Example 141] and CC(C)(C)C[C@H](NC(=O)c1cn(C2CCC2)nn1)C(=O)N1C[C@]2(C[C@H]1C#N)C(=O)Nc1ccccc12 [Example 148] cannot be ordered by IC50: under 100 nM for the first, under 100 nM for the second.

CC(C)C[C@@H](C(=O)N1C[C@]2(C[C@H]1C#N)C(=O)Nc1ccccc12)N(C)C(=O)c1c(Cl)cc(F)cc1Cl [Example 186] and CC(C)C[C@@H](C(=O)N1C[C@]2(C[C@H]1C#N)C(=O)Nc1ccccc12)N(C)C(=O)c1cc(F)cc(Cl)c1 [Example 173] cannot be ordered by IC50: under 100 nM for the first, under 100 nM for the second.

CC(C)(C)C[C@H](NC(=O)Nc1c(F)cccc1F)C(=O)N1C[C@]2(C[C@H]1C#N)C(=O)Nc1ccccc12 [Example 437] and CC(C)(C)C[C@H](NC(=O)Nc1ccc2ccccc2c1)C(=O)N1C[C@]2(C[C@H]1C#N)C(=O)Nc1ccccc12 [Example 439] fall in the same range of IC50: 100 to 1000 nM for the first, 100 to 1000 nM for the second.

CC(C)(C)OC(=O)NC[C@H](NC(=O)c1cc2c(F)cc(F)cc2[nH]1)C(=O)N1C[C@]2(C[C@H]1C#N)C(=O)Nc1ccccc12 [Example 128] and N#C[C@@H]1C[C@@]2(CN1C(=O)[C@H](COCc1cnn[nH]1)NC(=O)c1cc3c(F)cc(F)cc3[nH]1)C(=O)Nc1ccccc12 [Example 129] cannot be ordered by IC50: over 1000 nM for the first, over 1000 nM for the second.

CC(C)C[C@@H](C(=O)N1C[C@]2(C[C@H]1C#N)C(=O)Nc1ccccc12)N(C)C(=O)c1cc2ccc(=O)[nH]c2cc1OC1CC1 [Example 254] and CC(C)C[C@@H](C(=O)N1C[C@]2(C[C@H]1C#N)C(=O)Nc1ccccc12)N(C)C(=O)c1cc(OC2CC2)c2nc(Cl)ccc2c1 [Example 310] cannot be ordered by IC50: under 100 nM for the first, under 100 nM for the second.

Compared with CC(C)C[C@@H](C(=O)N1C[C@]2(C[C@H]1C#N)C(=O)Nc1ccccc12)N(C)C(=O)c1nc2cc(Cl)c(Cl)cc2[nH]1 [Example 251], CC(C)C[C@@H](C(=O)N1C[C@]2(C[C@H]1C#N)C(=O)Nc1ccccc12)N(C)C(=O)c1cc(Cl)c(F)cc1F [Example 171] is lower in IC50: 100 to 1000 nM for the first, under 100 nM for the second. The second is the more potent here.

First: N#C[C@@H]1C[C@@]2(CN1C(=O)[C@H](CC1CC1)NC(=O)c1cccc(OC(F)(F)F)c1)C(=O)Nc1ccc(Cl)cc12 [Example 520]
Second: CC(C)(F)C[C@H](NC(=O)c1cc2ccccn2n1)C(=O)N1C[C@]2(C[C@H]1C#N)C(=O)Nc1ccc(Cl)cc12 [Example 446]
The IC50 of the first is lower: under 100 nM for the first, 100 to 1000 nM for the second.

CN(C(=O)c1cc2c(F)cc(F)c(F)c2[nH]1)[C@@H](CC(C)(C)F)C(=O)N1C[C@]2(C[C@H]1C#N)C(=O)Nc1cccnc12 [Example 552] and CN(C(=O)Cc1ccccn1)[C@@H](CC(C)(C)F)C(=O)N1C[C@]2(C[C@H]1C#N)C(=O)Nc1ccc(Cl)cc12 [Example 483] cannot be ordered by IC50: under 100 nM for the first, under 100 nM for the second.

First: CC(C)C[C@@H](C(=O)N1C[C@]2(C[C@H]1C#N)C(=O)Nc1ccccc12)N(C)C(=O)c1ccc2c(=O)[nH]ccc2c1 [Example 276]
Second: CC(C)C[C@@H](C(=O)N1C[C@]2(C[C@H]1C#N)C(=O)Nc1ccccc12)N(C)C(=O)c1cccc(-c2ccccc2F)c1 [Example 264]
The IC50 of the first is lower: under 100 nM for the first, 100 to 1000 nM for the second. The first is the more potent here.

First: CC(C)C[C@@H](C(=O)N1C[C@]2(C[C@H]1C#N)C(=O)Nc1ccc(C(=O)N3CCOCC3)cc12)N(C)C(=O)c1cc2c(F)cc(F)cc2[nH]1 [Example 502, N—((S)-1-((3R,5′S)-5′-cyano-5-(morpholine-4-carbonyl)-2-oxospiro[indoline-3,3′-pyrrolidin]-1′-yl)-4-methyl-1-oxopentan-2-yl)-4,6-difluoro-N-methyl-1H-indole-2-carboxamide]
Second: CC(C)C[C@@H](C(=O)N1C[C@]2(C[C@H]1C#N)C(=O)Nc1ccccc12)N(C)C(=O)c1ccc2c(F)cc(F)cc2n1 [Example 290]
The IC50 of the first is lower: under 100 nM for the first, 100 to 1000 nM for the second. The first is the more potent here.

First: CN(C(=O)Cc1cccc(C(F)(F)F)n1)[C@@H](CC(C)(C)F)C(=O)N1C[C@]2(C[C@H]1C#N)C(=O)Nc1ccc(Cl)cc12 [Example 485]
Second: CN(C(=O)Cc1cccnc1)[C@@H](CC(C)(C)F)C(=O)N1C[C@]2(C[C@H]1C#N)C(=O)Nc1ccc(Cl)cc12 [Example 476]
The IC50 of the first is higher: 100 to 1000 nM for the first, under 100 nM for the second.

CC(C)(C)n1cc(C(=O)N[C@@H](CC2CC2)C(=O)N2C[C@]3(C[C@H]2C#N)C(=O)Nc2ccccc23)cn1 [Example 132] and Cc1cnc2ccc(C(=O)N[C@@H](CC(C)(C)C)C(=O)N3C[C@]4(C[C@H]3C#N)C(=O)Nc3ccccc34)cc2c1 [Example 135] cannot be ordered by IC50: under 100 nM for the first, under 100 nM for the second.

First: CC(C)C[C@@H](C(=O)N1C[C@]2(C[C@H]1C#N)C(=O)Nc1ccccc12)N(C)C(=O)c1cc(Cl)c2ncc(C3CC3)cc2c1 [Example 239]
Second: CC(C)C[C@@H](C(=O)N1C[C@]2(C[C@H]1C#N)C(=O)Nc1ccccc12)N(C)C(=O)c1ccc(Cl)cc1Cl [Example 168]
The IC50 of the first is higher: 100 to 1000 nM for the first, under 100 nM for the second.

Compared with N#C[C@@H]1C[C@@]2(CN1C(=O)[C@H](CN1CCCC1=O)NC(=O)OCc1ccccc1)C(=O)Nc1ccccc12 [Example 548, benzyl ((S)-1-((3R,5′S)-5′-cyano-2-oxospiro[indoline-3,3′-pyrrolidin]-1′-yl)-1-oxo-3-(2-oxopyrrolidin-1-yl)propan-2-yl)carbamate], CN(C(=O)c1ccn(C2CC2)n1)[C@@H](Cc1ccccc1)C(=O)N1C[C@]2(C[C@H]1C#N)C(=O)Nc1ccccc12 [Example 361] is lower in IC50: 100 to 1000 nM for the first, under 100 nM for the second.

First: CC(C)C[C@@H](C(=O)N1C[C@]2(C[C@H]1C#N)C(=O)Nc1ccccc12)N(C)C(=O)c1cnccn1 [Example 200]
Second: CC(C)C[C@@H](C(=O)N1C[C@]2(C[C@H]1C#N)C(=O)Nc1ccccc12)N(C)C(=O)c1cccc(-c2cccc(C#N)c2)c1 [Example 279]
The IC50 of the first is lower: under 100 nM for the first, 100 to 1000 nM for the second. The first is the more potent here.

CCCC[C@H](NC(=O)[C@@H](O)c1ccc(F)cc1)C(=O)N1C[C@]2(C[C@H]1C#N)C(=O)Nc1ccccc12 [Example 418] and N#C[C@@H]1C[C@@]2(CN1C(=O)[C@H](Cc1ccccc1F)NC(=O)c1cc3c(F)cc(F)cc3[nH]1)C(=O)Nc1ccc(Cl)cc12 [Example 451] cannot be ordered by IC50: under 100 nM for the first, under 100 nM for the second.

Compared with CC(C)C[C@@H](C(=O)N1C[C@]2(C[C@H]1C#N)C(=O)Nc1ccccc12)N(C)C(=O)c1ccc2nc(-c3ccccc3)ccc2c1 [Example 257], CN(C(=O)C(F)(F)c1ccncc1)[C@@H](CC(C)(C)F)C(=O)N1C[C@]2(C[C@H]1C#N)C(=O)Nc1ccc(Cl)cc12 [Example 480] is lower in IC50: 100 to 1000 nM for the first, under 100 nM for the second.

Source: patent US12540141B2, “Spiropyrrolidine derived antiviral agents” (priority 2020, dated 2026)
